We go through 5 compounds from patent publication US7192924B2, “Corticotropin releasing factor 2 receptor agonists” (priority 2002, dated 2007).

SMILES strings stand for the structures. Peptide text beside a SMILES is read from it.

Assay [1] concerns the target T1, CRF2R (Homo sapiens, UniProt Q13324).
T1 sequence (Q13324 1-411): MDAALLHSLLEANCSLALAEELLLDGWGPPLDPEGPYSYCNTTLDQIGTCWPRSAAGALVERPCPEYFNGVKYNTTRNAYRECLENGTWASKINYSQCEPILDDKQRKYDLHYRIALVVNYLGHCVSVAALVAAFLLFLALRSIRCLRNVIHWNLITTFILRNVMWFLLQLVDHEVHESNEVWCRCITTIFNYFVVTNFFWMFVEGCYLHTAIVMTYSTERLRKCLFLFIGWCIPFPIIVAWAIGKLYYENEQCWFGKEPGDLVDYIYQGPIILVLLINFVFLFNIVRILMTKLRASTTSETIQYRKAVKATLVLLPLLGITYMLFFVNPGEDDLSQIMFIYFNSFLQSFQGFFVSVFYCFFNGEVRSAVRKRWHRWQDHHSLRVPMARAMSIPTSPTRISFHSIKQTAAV
The experiment in a line: CRF2R agonist activity (EC50, Emax), called comparative CRF binding. The assay is classed as cell-based. The following applies: read-out: CRF2R EC50. The procedure, abridged:
(§1)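 Cells expressing only CRF1R or CRF2R (recombinant, or with the other receptor disabled or its signal subtracted) were treated with peptide or vehicle control. Activation was read as cAMP induction in cell lysates or via a cAMP-responsive-element reporter gene.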

In assay [2] the target is T2, CRF1R (Homo sapiens, UniProt P34998).
T2 sequence (P34998 24-415): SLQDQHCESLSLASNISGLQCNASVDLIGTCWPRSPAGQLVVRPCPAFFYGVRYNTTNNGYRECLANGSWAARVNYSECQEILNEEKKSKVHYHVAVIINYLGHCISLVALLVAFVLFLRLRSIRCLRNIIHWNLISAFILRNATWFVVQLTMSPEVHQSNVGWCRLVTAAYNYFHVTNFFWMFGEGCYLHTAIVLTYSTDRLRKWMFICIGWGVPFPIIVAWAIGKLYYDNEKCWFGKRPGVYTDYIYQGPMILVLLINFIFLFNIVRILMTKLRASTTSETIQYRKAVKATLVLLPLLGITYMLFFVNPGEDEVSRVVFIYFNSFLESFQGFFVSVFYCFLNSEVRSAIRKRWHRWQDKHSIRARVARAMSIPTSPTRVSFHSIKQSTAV
The experiment in a line: CRF1R agonist activity (EC50, Emax), called comparative CRF binding. The assay is classed as cell-based. The note with it: read-out: CRF1R EC50. Summed up: as §1

For the compound `CC[C@H](C)[C@H](N)C(=O)N[C@H](C(=O)N[C@@H](CC(C)C)C(=O)N[C@@H](CO)C(=O)N[C@@H](CC(C)C)C(=O)N[C@@H](CC(=O)O)C(=O)N[C@H](C(=O)N1CCC[C@H]1C(=O)N[C@H](C(=O)NCC(=O)N[C@@H](CC(C)C)C(=O)N[C@@H](CC(C)C)C(=O)N[C@@H](CCC(N)=O)C(=O)N[C@H](C(=O)N[C@@H](CC(C)C)C(=O)N[C@@H](CC(C)C)C(=O)N[C@@H](CCC(=O)O)C(=O)N[C@@H](CCC(N)=O)C(=O)N[C@H](C(=O)N[C@@H](CCCCN)C(=O)N[C@@H](C)C(=O)N[C@@H](CC(=O)O)C(=O)N[C@@H](CCC(N)=O)C(=O)N[C@@H](CC(C)C)C(=O)N[C@@H](C)C(=O)N[C@@H](CCC(N)=O)C(=O)N[C@@H](CCC(N)=O)C(=O)N[C@@H](C)C(=O)N[C@@H](Cc1c[nH]cn1)C(=O)N[C@@H](CO)C(=O)N[C@@H](CC(N)=O)C(=O)N[C@@H](CCCNC(=N)N)C(=O)N[C@@H](CCCCN)C(=O)N[C@@H](CC(C)C)C(=O)N[C@@H](CC(C)C)C(=O)N[C@@H](CC(=O)O)C(=O)N[C@H](C(=O)N[C@@H](C)C(N)=O)[C@@H](C)CC)[C@@H](C)O)[C@@H](C)CC)[C@@H](C)CC)C(C)C)C(C)C` [compound 159] (H-IVLSLDVPIGLLQILLEQTKADQLAQQAHSNRKLLDIA-NH2; N-terminus assumed), the figures for the EC50 in assay [1] and in assay [2] were 90.8 nM and over 100 nM, respectively.

In the case of `CC[C@H](C)[C@H](N)C(=O)N[C@H](C(=O)N[C@@H](CC(C)C)C(=O)N[C@@H](CO)C(=O)N[C@@H](CC(C)C)C(=O)N[C@@H](CC(=O)O)C(=O)N[C@H](C(=O)N1CCC[C@H]1C(=O)N[C@H](C(=O)NCC(=O)N[C@@H](CC(C)C)C(=O)N[C@@H](CC(C)C)C(=O)N[C@@H](CCC(N)=O)C(=O)N[C@H](C(=O)N[C@@H](CC(C)C)C(=O)N[C@@H](CC(C)C)C(=O)N[C@@H](CCC(=O)O)C(=O)N[C@@H](CC(C)C)C(=O)N[C@@H](C)C(=O)N[C@@H](CCCNC(=N)N)C(=O)N[C@H](C(=O)N[C@@H](CCC(N)=O)C(=O)N[C@@H](CO)C(=O)N[C@@H](CCC(N)=O)C(=O)N[C@@H](CCCNC(=N)N)C(=O)N[C@@H](CCC(=O)O)C(=O)N[C@@H](CCCNC(=N)N)C(=O)N[C@@H](C)C(=O)N[C@@H](CCC(=O)O)C(=O)N[C@@H](CCC(N)=O)C(=O)N[C@@H](CC(N)=O)C(=O)N[C@@H](CCCNC(=N)N)C(=O)N[C@H](C(=O)N[C@H](C(=O)N[C@@H](Cc1ccccc1)C(=O)N[C@@H](CC(=O)O)C(=O)N[C@@H](CO)C(=O)N[C@H](C(N)=O)C(C)C)[C@@H](C)CC)[C@@H](C)CC)[C@@H](C)O)[C@@H](C)O)[C@@H](C)CC)C(C)C)C(C)C` [compound 160] (H-IVLSLDVPIGLLQTLLELARTQSQRERAEQNRIIFDSV-NH2; N-terminus assumed), the EC50 in assay [1] was 9.15 nM; in assay [2], over 100 nM.

As for `CC[C@H](C)[C@H](N)C(=O)N[C@H](C(=O)N[C@@H](CC(C)C)C(=O)N[C@@H](CO)C(=O)N[C@@H](CC(C)C)C(=O)N[C@@H](CC(=O)O)C(=O)N[C@H](C(=O)N1CCC[C@H]1C(=O)N[C@H](C(=O)NCC(=O)N[C@@H](CC(C)C)C(=O)N[C@@H](CC(C)C)C(=O)N[C@@H](CCC(N)=O)C(=O)N[C@H](C(=O)N[C@@H](CC(C)C)C(=O)N[C@@H](CC(C)C)C(=O)N[C@@H](CCC(=O)O)C(=O)N[C@@H](CCSC)C(=O)N[C@@H](C)C(=O)N[C@@H](CCCNC(=N)N)C(=O)N[C@@H](C)C(=O)N[C@@H](CCC(=O)O)C(=O)N[C@@H](CCC(N)=O)C(=O)N[C@@H](CC(C)C)C(=O)N[C@@H](C)C(=O)N[C@@H](CCC(N)=O)C(=O)N[C@@H](CCC(N)=O)C(=O)N[C@@H](C)C(=O)N[C@@H](Cc1c[nH]cn1)C(=O)N[C@@H](CO)C(=O)N[C@@H](CC(N)=O)C(=O)N[C@@H](CCCNC(=N)N)C(=O)N[C@@H](CCCCN)C(=O)N[C@@H](CC(C)C)C(=O)N[C@@H](CCSC)C(=O)N[C@@H](CCC(=O)O)C(=O)N[C@H](C(=O)N[C@H](C(N)=O)[C@@H](C)CC)[C@@H](C)CC)[C@@H](C)CC)[C@@H](C)CC)C(C)C)C(C)C` [compound 164] (H-IVLSLDVPIGLLQILLEMARAEQLAQQAHSNRKLMEII-NH2; N-terminus assumed), the EC50 in assay [1] was 2.24 nM; in assay [2], over 100 nM.

Take `CC[C@H](C)[C@H](N)C(=O)N[C@H](C(=O)N[C@@H](CC(C)C)C(=O)N[C@@H](CO)C(=O)N[C@@H](CC(C)C)C(=O)N[C@@H](CC(=O)O)C(=O)N[C@H](C(=O)N1CCC[C@H]1C(=O)N[C@H](C(=O)NCC(=O)N[C@@H](CC(C)C)C(=O)N[C@@H](CC(C)C)C(=O)N[C@@H](CCC(N)=O)C(=O)N[C@H](C(=O)N[C@@H](CC(C)C)C(=O)N[C@@H](CC(C)C)C(=O)N[C@@H](CCC(=O)O)C(=O)N[C@@H](CCC(N)=O)C(=O)N[C@@H](CCC(=O)O)C(=O)N[C@@H](CCCCN)C(=O)N[C@@H](CCC(N)=O)C(=O)N[C@@H](CCC(=O)O)C(=O)N[C@@H](CCCCN)C(=O)N[C@@H](CCC(=O)O)C(=O)N[C@@H](CCCCN)C(=O)N[C@@H](CCC(N)=O)C(=O)N[C@@H](CCC(N)=O)C(=O)N[C@@H](C)C(=O)N[C@H](C(=O)N[C@H](C(=O)N[C@@H](CC(N)=O)C(=O)N[C@@H](C)C(=O)N[C@@H](CCCNC(=N)N)C(=O)N[C@H](C(=O)N[C@@H](CC(C)C)C(=O)N[C@@H](C)C(=O)N[C@@H](CCCNC(=N)N)C(=O)N[C@H](C(N)=O)C(C)C)[C@@H](C)CC)[C@@H](C)O)[C@@H](C)O)[C@@H](C)CC)[C@@H](C)CC)C(C)C)C(C)C` [compound 167] (H-IVLSLDVPIGLLQILLEQEKQEKEKQQATTNARILARV-NH2; N-terminus assumed): the EC50 is 13 nM in assay [1] and at least 1000 nM in assay [2].

As for `CC[C@H](C)[C@H](NC(=O)[C@H](C)NC(=O)[C@H](CC(N)=O)NC(=O)[C@H](CCC(N)=O)NC(=O)[C@H](CCC(=O)O)NC(=O)[C@H](C)NC(=O)[C@H](CCCNC(=N)N)NC(=O)[C@H](CCC(=O)O)NC(=O)[C@H](CCCNC(=N)N)NC(=O)[C@H](CCC(N)=O)NC(=O)[C@H](CO)NC(=O)[C@H](CCC(N)=O)NC(=O)[C@@H](NC(=O)[C@H](CCCNC(=N)N)NC(=O)[C@H](C)NC(=O)[C@H](CC(C)C)NC(=O)[C@H](CCC(=O)O)NC(=O)[C@H](CC(C)C)NC(=O)[C@H](CC(C)C)NC(=O)[C@@H](NC(=O)[C@H](CCCNC(=N)N)NC(=O)[C@H](CC(C)C)NC(=O)[C@H](CC(C)C)NC(=O)[C@H](CC(C)C)NC(=O)[C@H](CC(C)C)NC(=O)[C@@H]1CCCN1C(=O)[C@H](CC(C)C)NC(=O)[C@H](CC(=O)O)NC(=O)[C@@H](NC(=O)[C@H](CO)NC(=O)[C@H](CC(C)C)NC(=O)[C@H](CO)NC(=O)[C@@H]1CCCN1C(=O)[C@H](CC(N)=O)NC(=O)[C@@H](N)CC(=O)O)[C@@H](C)CC)[C@@H](C)O)[C@@H](C)O)C(=O)N[C@H](C(=O)N[C@@H](Cc1ccccc1)C(=O)N[C@@H](C)C(=O)N[C@@H](CO)C(=O)N[C@H](C(N)=O)C(C)C)[C@@H](C)CC` [compound 174] (H-DNPSLSIDLPLLLLRTLLELARTQSQRERAEQNAIIFASV-NH2; N-terminus assumed), the results for the EC50 in assay [1] and in assay [2] were 4.42 nM and at least 1000 nM, respectively.

One may read the EC50 as the midpoint of the concentration-response curve.
